Laboratory results: publication PMC12040169 (PLOS Biology, 2025)

test: in vitro; conditions: human, hela cells, % viability

| SMILES | viability at 28.5 h, 10 µM |
| --- | --- |
| Cc1cc(N2CCCC2)ccc1NC(=O)CCn1c(-c2cccs2)n[nH]c1=S [CBK297883] | 86.6% |
| CCOC(=O)NC(=O)CSc1nnc(C2COc3ccccc3O2)n1-c1ccccc1 (stereo not drawn) [CBK297884] | 88.9% |
| Cc1ccc(C(=O)CCC(=O)N2CCCC2c2ccc(F)cc2)cc1 (stereo not drawn) [CBK297885] | 96.2% |
| C=CCn1c(-c2sc(NC(=O)Cn3c(=O)n(CCC)c4ccccc43)nc2C)n[nH]c1=S [CBK297890] | 97.7% |
| Cn1cccc1C(=O)NCCNC(=O)c1cc2ccccc2[nH]1 [CBK297894] | 87.7% |
| O=C(c1cc(O)nc2ccccc12)N1CCN(S(=O)(=O)N2CCCC2)CC1 [CBK297898] | 88.6% |
| CC(OC(=O)c1ccc2nccnc2c1)c1cccc([N+](=O)[O-])c1 (stereo not drawn) [CBK297901] | 78.5% |
| OC(COc1ccccc1F)CSc1nc(NC2CC2)c2ccccc2n1 (stereo not drawn) [CBK297902] | 86.7% |
| Cc1[nH]c2ccccc2c1C(=O)CSc1nccn1Cc1ccccc1 [CBK297905] | 76.6% |
| COc1ccc(C(=O)Nc2c(C)nn(-c3ccccc3)c2C)cc1S(=O)(=O)NC1CC1 [CBK297906] | 85.7% |
| Cc1ccc(-c2n[nH]c(=S)n2CC(=O)N(C)Cc2ccc(N3CCOCC3)cc2)cc1 [CBK297908] | 85.9% |
| C=CCn1c(-c2sc(NC(=O)CN3C(=C)c4ccccc4C3=O)nc2C)n[nH]c1=S [CBK297909] | 84.4% |
| CC(C)C(=O)N1CCN(C(=O)Cn2c(-c3ccc(Cl)cc3)n[nH]c2=S)CC1 [CBK297910] | 100% |
| Cc1ccc(S(=O)(=O)N2CCCN(CC(O)c3ccccc3)CC2)cc1 (stereo not drawn) [CBK297911] | 104% |
| Cc1[nH]c2ccccc2c1C(=O)CSc1nncc2ccccc12 [CBK297912] | 92.1% |
| COc1ccc(O)c(C(=O)c2cnn(-c3ccc(Cl)c(C(=O)O)c3)c2)c1 [CBK297914] | 90.2% |
| CN(C)c1cc(CNC(=O)c2cc3ccccc3oc2=O)ccn1 [CBK297917] | 88.8% |
| CN(C)C(=O)CN1CCN(C(=O)c2ccccc2C(=O)c2ccc(F)cc2)CC1 [CBK297921] | 89.5% |
| Cc1ccc(-c2n[nH]c(=S)n2CCC(=O)NCc2ccc(-c3csc(C)n3)s2)cc1 [CBK297924] | 84.5% |
| CSc1nc(C)c(CCC(=O)N(C)Cc2c(C)nn(-c3ccccc3)c2C)c(=O)[nH]1 [CBK297925] | 84.5% |
| COC(=O)c1cc(C#N)c(=O)n(CC(=O)Nc2ccc(OC)c(OC)c2)c1 [CBK297926] | 102% |

| SMILES | viability at 28.5 h, 10 µM |
| --- | --- |
| Cc1nn(Cc2ccccc2)c(C)c1CNC(=O)c1nc(Cl)ccc1Cl [CBK297928] | 93.8% |
| CC(=O)c1ccccc1NC(=O)c1cc2ccc(F)cc2nc1C [CBK297929] | 89.2% |
| CC(C)CN1CCOC(CNC(=O)c2cc(O)nc3ccccc23)C1 (stereo not drawn) [CBK297931] | 80.6% |
| Cc1nc2ccccc2nc1COC(=O)c1ccc(S(=O)(=O)N2CCCCC2C)cc1 (stereo not drawn) [CBK297932] | 90.7% |
| O=C(NCC1(N2CCOCC2)CCCCC1)c1ccccc1C(=O)c1ccc(F)cc1 [CBK297938] | 81% |
| Cc1cccc(-c2n[nH]c(=S)n2CC(=O)NCc2cn(-c3ccccc3)nc2-c2ccccc2)c1 [CBK297941] | 88.1% |
| Cc1cccc(-c2n[nH]c(=S)n2CC(=O)NCCCS(=O)(=O)Cc2ccccc2)c1 [CBK297942] | 103% |
| COc1ccc(NS(=O)(=O)c2cc(C(=O)O)sc2Br)cn1 [CBK297943] | 81.8% |
| COc1ccc(NC(=O)C2CC3CCC2C3)cc1S(=O)(=O)Nc1ccc(Cl)cc1 (stereo not drawn) [CBK297945] | 79.4% |
| Cc1cc(S(=O)(=O)Nc2ccc(C(C)(C)C)cc2)sc1C(=O)O [CBK297946] | 88.1% |
| O=C(NCc1cccnc1-n1cccn1)c1c[nH]c(C(=O)N2CCCC2)c1 [CBK298263] | 99.1% |
| COc1ccc(C)cc1C(O)CN1CCOC(c2ccc(F)cc2)C1 (stereo not drawn) [CBK298264] | 95.5% |
| CC(NC(=O)Nc1ccc(C(=O)NC(C)(C)C)cc1)c1cccc(Cl)c1 (stereo not drawn) [CBK298265] | 87.8% |
| CSc1nc(C)c(CCC(=O)Nc2ccc(N3CC(C)OC(C)C3)nc2)c(C)n1 (stereo not drawn) [CBK298266] | 87.4% |
| COc1ccc2cc(COC(=O)c3ccc([S+](C)[O-])cc3)c(Cl)nc2c1 (stereo not drawn) [CBK298267] | 99.5% |
| O=C(C1CC1)N1CCC(C(=O)N(Cc2ccco2)c2ccccc2)CC1 [CBK298269] | 85.8% |
| Cc1ccc(C2=CCN(C(=O)c3cccc(S(=O)(=O)N(C)C)c3)CC2)cc1 [CBK298273] | 90.9% |
| Cc1ncc(CN(C)C(C)C(=O)Nc2ccccc2N2CCCC2=O)s1 (stereo not drawn) [CBK298274] | 92% |
| Cc1ccc(Cc2cnc(NC(=O)c3ccoc3C)s2)cc1C [CBK298277] | 80.1% |
| COc1ccc(OC)c(CN(C(=O)c2oc3ccc(F)cc3c2C)c2cnn(C)c2)c1 [CBK298278] | 89.1% |
| COc1ccc(-c2noc(COc3cccc(C(=O)O)c3)n2)c(OC)c1 [CBK298279] | 101% |

| SMILES | viability at 28.5 h, 10 µM |
| --- | --- |
| Cc1ccc(Cn2ncc3c(C(=O)N4CCC(N(C)S(C)(=O)=O)CC4)cc(C)nc32)cc1 [CBK298280] | 102% |
| Cc1cc(Cc2cnc(NC(=O)C3CCS(=O)(=O)C3)s2)ccc1Br (stereo not drawn) [CBK298281] | 90% |
| COc1ccc(SC(C)C(=O)N2CCN(c3ccc([N+](=O)[O-])nc3)CC2)cc1 (stereo not drawn) [CBK298282] | 93.5% |
| CN(Cc1cccnc1)C(=O)CSC(c1ccccc1)c1ccccc1 [CBK298284] | 90.7% |
| Cc1cn2nc(N3CCN(S(=O)(=O)c4ccccc4[N+](=O)[O-])CC3)sc2n1 [CBK298288] | 111% |
| CCOc1cc(-c2nc3sc(CC)cc3c(=O)[nH]2)ccc1OCC(=O)O [CBK298291] | 88.4% |
| O=C(Nc1ncc(-c2ccccc2)s1)c1csc([N+](=O)[O-])c1 [CBK298293] | 87.4% |
| COC(=O)c1cccc(C(=O)Nc2ncc(-c3ccccc3)s2)c1 [CBK298294] | 89.7% |
| CN(C)C(CNS(=O)(=O)c1cc2c(cc1Br)NC(=O)CO2)c1ccc(F)cc1 (stereo not drawn) [CBK298296] | 105% |
| COc1cc(CNC(=O)c2ccc(O)nc2)ccc1OCc1ccncc1 [CBK298297] | 96.9% |
| Cc1nnc(C(C)Sc2nnc(-c3ccc(F)cc3)n2CC2CCCO2)o1 (stereo not drawn) [CBK298298] | 94.4% |
| Cc1cc(C(=O)NCc2ccnc(N3CCOCC3)c2)c(C)n1-c1cccc(Cl)c1 [CBK298301] | 81.9% |
| CCN(CC)CCn1c(NC(=O)c2c(Cl)nc3ccccn23)nc2ccccc21 [CBK298305] | 107% |
| CN(Cc1cc(Br)cs1)C(=O)CCN1C(=O)COc2ccccc21 [CBK298308] | 90% |
| CCc1c(C(=O)NCc2cccnc2-n2cncn2)cnn1-c1ccc(OC)nn1 [CBK298309] | 90.5% |
| Cc1cccn2cc(COC(=O)c3ccc(F)cc3N)nc12 [CBK298310] | 54.1% |
| CCOc1ccc(C(=O)N2CCN(S(=O)(=O)c3ccc(C)cc3C)CC2)cn1 [CBK298313] | 93.3% |
| COc1ccc(CC(=O)O)cc1S(=O)(=O)Nc1ccc(SC)cc1 [CBK298315] | 81% |
| Cc1nc([N+](=O)[O-])cn1CCC(=O)Nc1ccccc1Oc1ccccc1Cl [CBK298319] | 101% |
| O=C(NCC(O)COc1ccccc1)c1cnn2c(-c3ccccc3)ccnc12 (stereo not drawn) [CBK298320] | 99% |
| Cc1ccc(CC(C#N)Sc2nc(CN3CCOCC3)nc3ccccc23)cc1 (stereo not drawn) [CBK298321] | 82% |

| SMILES | viability at 28.5 h, 10 µM |
| --- | --- |
| Cc1ccc(-c2nc(C)c(C(=O)NCc3ccnc(-n4ccnc4)c3)s2)o1 [CBK298322] | 105% |
| O=C(Nc1ccc(Oc2ncccn2)cc1)c1csc(-c2ccccc2)n1 [CBK298324] | 85.5% |
| O=C(O)c1ccn(-c2ccc(NS(=O)(=O)c3ccc(N4CCCC4=O)cc3)cc2)n1 [CBK298327] | 102% |
| CC(SCc1ccccc1)C(=O)NCC1CCN(c2ccccc2)C1 (stereo not drawn) [CBK298329] | 89.5% |
| COc1ccccc1CN(C(=O)Nc1ccccc1Cl)C1CC1 [CBK298332] | 97.2% |
| COc1cccc(NS(=O)(=O)c2cc(CC(=O)O)ccc2OC)c1 [CBK298333] | 93.9% |
| NC(=O)c1ccccc1NC(=O)Cc1ccc2c(c1)CCCC2 [CBK298334] | 88.9% |
| COc1cc(C(C)NC(=O)c2ccc(=O)[nH]n2)ccc1OC1CCCC1 (stereo not drawn) [CBK298335] | 89.7% |
| Cc1nccn1CC(C)CNc1ccc(C(=O)c2ccccc2)cc1[N+](=O)[O-] (stereo not drawn) [CBK298336] | 80.4% |
| O=C(NC1CCCN(c2ncccn2)C1)c1ccc(-c2ccc(F)cc2)s1 (stereo not drawn) [CBK298337] | 88.5% |
| Cc1[nH]c2c(C(=O)Nc3cccc(CN4CCOC4=O)c3)cccc2c1C [CBK298338] | 90.3% |
| O=C(Cc1csc(-c2c(Cl)cccc2Cl)n1)NC[C@H]1CC[C@H](C(=O)O)CC1 [CBK299767] | 85.7% |
| CC(C)(CC(=O)O)CC(=O)Nc1ccc2c(c1)ncn2CCc1ccccc1 [CBK299768] | 91.7% |
| CC1Oc2ccc(S(=O)(=O)Nc3ccc(CCC(=O)O)cc3)cc2NC1=O (stereo not drawn) [CBK299769] | 92.3% |
| Cc1cc2c(cc1S(=O)(=O)NCCOc1cccc(C(=O)O)c1)OCC(=O)N2 [CBK299770] | 88.3% |
| CCOc1ccc(-c2cc(C(=O)Nc3cccc(C(=O)O)c3)no2)cc1 [CBK299776] | 93.9% |
| O=C(O)c1cccc(NC(=O)c2ccc(COc3ccc(-c4ccccc4)cc3)o2)c1 [CBK299778] | 105% |
| O=C(O)c1cccc(OCCNS(=O)(=O)c2ccc(N3CCCC3=O)cc2)c1 [CBK299779] | 97.3% |
| CS(=O)(=O)N1CCCC(C(=O)Nc2cccc3cccnc23)C1 (stereo not drawn) [CBK299783] | 90.8% |
| O=C(O)C1CC=CCC1C(=O)N1CCN(C(=O)c2ccco2)CC1 (stereo not drawn) [CBK299784] | 94.1% |
| O=C(CSc1n[nH]c(=O)n1C1CCCCC1)NCc1ccc(N2CCCC2=O)cc1 [CBK299785] | 105% |
